“Also recorded” adds a separate entry of the source. Ends that are not written are not given here.
How the values were obtained:
Type in all cases: in vivo, mouse
C57Bl/6 mice = test: Intestinal ischemia/reperfusion, mucosal injury score; set-up: key to Injury: + indicates significant difference from Sham treated mice; − indicates not significantly different from C57B1/6 sham treated mice; +/− indicates no significant difference from either C57B1/6 mice subjected to either Sham or IR; conditions: for IR-induced intestinal mucosal damage (injury score): C57Bl/6 mice, peptide 40 μM i.v. 5 min prior to ischemia, 2 hours reperfusion; for IR-induced intestinal injury: Example 2, peptides administered after reperfusion (15-, 30-, or 60-minutes post-reperfusion)
Description: (§1) C57Bl/6 and Rag-1^−/− mice were subjected to ischemia followed by reperfusion similar to previously described studies (Moses, T. et al., J. Leukoc. Biol. 86:971-980 (2009)). Briefly, ketamine (16 mg/kg) and xylazine (80 mg/kg) were used to anesthetize the mice. Buprenorphine (0.06 mg/kg) was then administered for pain. A midline laparotomy was performed to expose the abdominal cavity of the mice, which were then allowed to equilibrate for 30 min. Body temperature was maintained at 37° C. using a water-circulating heat pad. Placing a warm, saline moistened piece of gauze over the abdominal cavity prevented peritoneal desiccation. […] Ischemia was noted by the intestine changing from a pink color to a gray color. After 30 min of ischemia, the clamp was removed and the intestines were allowed to reperfuse for 5, 10, 15, or 120 min. […] Mice treated with the various β2-GPI peptides underwent the same procedure with i.v. administration of the peptides (40 μM) 5 min prior to artery occlusion. Peptides 296, 305, and 296Cys to Ser were dissolved in N. Saline (0.9% NaCl) and injected i.v. in 100-μL volumes. Peptides 100 and 181 were dissolved in DMSO prior to diluting 1/100 in N. Saline. Additional mice received peptides prior to Sham treatment.
Immediately after euthanasia, a 2-cm mid jejunum tissue section was immediately fixed in 10% buffered formalin, embedded in paraffin, and 8 μm sections were cut transversely and hematoxylin and eosin (H&E) stained. Mucosal injury was graded on a six-tiered scale, as described previously (Fleming, S. D. et al., J. Immunol. 169:2126-2133 (2002)). Briefly, the average damage score of the intestinal section (75-150 villi) was determined after grading each villus. […] Photomicrographs were obtained from H&E stained slides using a 20×, 0.5 Plan Fluor objective on a Nikon 80i microscope and images acquired at room temperature using a Nikon DS-5M camera with DS-L2 software.
Ischemia/reperfusion was performed on ketamine/xylazine anesthetized mice as described in Example 1 above. After 2 hours of reperfusion, the mice were euthanized and sera, liver, spleen, and 2 cm sections of the small intestine, approximately 10 cm distal to the gastroduodenal junction, were collected for histological and other analyses. Mice treated with the various β2-GPI peptides underwent the same procedure with i.v. administration of the peptides. Most studies assumed 2 mL total blood volume in a mouse and administered peptides to a final concentration of 40 μM at 5 min prior to ischemia. Dose response studies administered 1-40 μM peptide at 5 min prior to ischemia and time course studies administered 40 μM peptide at 5 min prior to ischemia, and at 15-, 30- or 60-min post-ischemia (i.e., during reperfusion).
After euthanasia, tissue sections were fixed and stained following the procedures outlined in Example 1. Mucosal injury (SMI) was also graded on a six-tiered scale, as described in Example 1.

C3 = test: Intestinal IR, C3 deposition immunohistochemistry; set-up: key to C3 Deposition: + indicates significant difference from Sham treated mice; − indicates not significantly different from C57B1/6 sham treated mice; +/− indicates no significant difference from either C57B1/6 mice subjected to either Sham or IR; conditions: for C3 Deposition: C57Bl/6 mice subjected to IR, peptide 40 μM i.v. 5 min prior to artery occlusion; for C3 deposition / complement activation after IR: C57Bl/6 mice, peptide infused prior to IR
Description: as §1
(§2) After euthanasia, an additional 2-cm intestinal section from each mouse was immediately snap frozen in O.C.T. freezing medium and 8 μm sections were placed on slides for immunohistochemistry. The C3 deposition and F4/80 expression on the tissue sections were detected by staining with a purified rat-anti-mouse C3 (Hycult Biotechnologies; Plymouth Meeting, Pa.) or F4/80 (eBioscience; San Diego, Calif.) antibody followed by a Texas-red conjugated donkey-anti-rat IgG secondary antibody (Jackson Immunoresearch). CD31 (PECAM-1) and CD106 (VCAM-1) were detected by FITC conjugated rat anti-mouse CD31 or CD106 (Biolegend; San Diego, Calif.) antibodies. Each experiment contained serial sections stained with the appropriate isotype control antibodies. All slides were mounted with ProLong Gold (Invitrogen). Images were obtained at room temperature using a Nikon Eclipse 80i microscope equipped with a CoolSnap CF camera (Photometrics) and analyzed using Metavue software (Molecular Devices). The fluorescence was semi-quantitated using Image J software (NIH) using the fluorescent area fraction after setting threshold for each experiment. The average of the isotype control was subtracted from each photo.

CD31 (PECAM-1) = test: Intestinal IR, CD31 immunohistochemistry; set-up: key to CD31 Deposition: + indicates significant difference from Sham treated mice; − indicates not significantly different from C57B1/6 sham treated mice; +/− indicates no significant difference from either C57B1/6 mice subjected to either Sham or IR; conditions: for CD31 Deposition: C57Bl/6 mice subjected to IR, peptide 40 μM i.v. 5 min prior to artery occlusion; for expression of adhesion molecule CD31 after IR: C57Bl/6 mice, peptide prior to IR
Description: as §1, §2

PGE2 = test: Intestinal IR, ex vivo PGE2 generation; set-up: key to PGE2 Production: + indicates significant difference from Sham treated mice; − indicates not significantly different from C57B1/6 sham treated mice; +/− indicates no significant difference from either C57B1/6 mice subjected to either Sham or IR; conditions: for IR-induced intestinal PGE2 production: C57Bl/6 mice, peptide 40 μM prior to IR
Description: C57Bl/6 and Rag-1^−/− mice were subjected to ischemia followed by reperfusion similar to previously described studies (Moses, T. et al., J. Leukoc. Biol. 86:971-980 (2009)). Briefly, ketamine (16 mg/kg) and xylazine (80 mg/kg) were used to anesthetize the mice. Buprenorphine (0.06 mg/kg) was then administered for pain. A midline laparotomy was performed to expose the abdominal cavity of the mice, which were then allowed to equilibrate for 30 min. Body temperature was maintained at 37° C. using a water-circulating heat pad. Placing a warm, saline moistened piece of gauze over the abdominal cavity prevented peritoneal desiccation. […] Ischemia was noted by the intestine changing from a pink color to a gray color. After 30 min of ischemia, the clamp was removed and the intestines were allowed to reperfuse for 5, 10, 15, or 120 min. […] Peptides 296, 305, and 296Cys to Ser were dissolved in N. Saline (0.9% NaCl) and injected i.v. in 100-μL volumes. Peptides 100 and 181 were dissolved in DMSO prior to diluting 1/100 in N. Saline. Additional mice received peptides prior to Sham treatment.
Ex vivo generation of eicosanoids by mid-jejunal tissue was determined. Immediately after collection, a 2-cm intestinal section from each mouse was minced, washed, resuspended in 37° C. oxygenated Tyrode's buffer (Sigma-Aldrich; St. Louis, Mo.), incubated at 37° C. for 20 minutes, and the supernatant collected. PGE2 and LTB4 concentrations were determined using enzyme immunoassay kits (Cayman Chemical; Ann Arbor, Mich.). IL-6 and IL-12 concentrations were determined using a Milliplex MAP immunoassay kit (Millipore) and read on a Milliplex Analyzer (Millipore). All eicosanoid and cytokine concentrations were standardized to the total tissue protein content.
Total peroxidase, LTB4, PGE2, IL-6, IL-12p40, and IL-12p70 concentrations were determined using the procedures described in Example 1.

[1] = C57Bl/6 mice subjected to IR, peptide 40 μM i.v. 5 min prior to artery occlusion
[2] = 10 μM peptide 5 min prior to IR
[3] = administered at 60 min post-reperfusion
[4] = administered at either 5- or 15-min post-reperfusion, 2-hour assay
[5] = treatment at both 30 min and 60 min post-reperfusion
[6] = administered at 15 min post-reperfusion

H-IHFYCKNKEKKCSYTVEAHCRDGTI-OH (cysteine pairing not given here) [peptide 296]
Injury (C57Bl/6 mice; [1]): −
IR-induced intestinal mucosal damage (injury score) (C57Bl/6 mice): attenuated mucosal damage
C3 Deposition (C3): −
C3 deposition / complement activation after IR (C3): significantly decreased C3 deposition; also recorded: attenuated complement activation
CD31 Deposition (CD31 (PECAM-1)): −
expression of adhesion molecule CD31 after IR (CD31 (PECAM-1)): inhibited
PGE2 Production (PGE2; [1]): −
IR-induced intestinal PGE2 production (PGE2): attenuated; also recorded: blocked

H-IHFYSKNKEKKSSYTVEAHSRDGTI-OH [peptide 296Cys-Ser]
intestinal damage (C57Bl/6 mice; 4 μM peptide 5 min prior to IR): attenuated
Injury (C57Bl/6 mice; [2]): optimally attenuated
Injury (C57Bl/6 mice; [1]): −
IR-induced intestinal mucosal damage (injury score) (C57Bl/6 mice): attenuated mucosal damage; also recorded: confirmed to attenuate injury
IR-induced intestinal mucosal damage (injury score) (C57Bl/6 mice; listed as 296c-s): attenuate actual epithelial injury more effectively
IR-induced intestinal injury (C57Bl/6 mice): effective for attenuating
intestinal injury (C57Bl/6 mice; [3]): attenuated
intestinal injury (C57Bl/6 mice; [4]): effective in preventing intestinal injury
intestinal injury (C57Bl/6 mice; [5]): significantly decreased
C3 Deposition (C3): −
C3 deposition / complement activation after IR (C3): significantly decreased C3 deposition; also recorded: attenuated complement activation
CD31 Deposition (CD31 (PECAM-1)): −
expression of adhesion molecule CD31 after IR (CD31 (PECAM-1)): inhibited
PGE2 Production (PGE2; [2]): optimally attenuated
PGE2 Production (PGE2; [1]): −
IR-induced intestinal PGE2 production (PGE2): attenuated; also recorded: blocked
PGE2 Production (PGE2; [6]): attenuated

H-IPSCFKEHSSLAFWKTDASELTPC-NH2 (cysteine pairing not given here) [peptide 322, 18]
Injury (C57Bl/6 mice; [1]): +
IR-induced intestinal mucosal damage (injury score) (C57Bl/6 mice): IR-induced intestinal damage similar to untreated mice
C3 Deposition (C3): +
C3 deposition / complement activation after IR (C3): did not significantly inhibit C3 deposition
CD31 Deposition (CD31 (PECAM-1)): +
PGE2 Production (PGE2; [1]): +
IR-induced intestinal PGE2 production (PGE2): sustained inflammation similar to untreated mice

H-KKCSYTVEAHCRDGTIEIPSCFKEHS-OH (cysteine pairing not given here) [peptide 305, 10]
Injury (C57Bl/6 mice; [2]): optimally attenuated
Injury (C57Bl/6 mice; [1]): −
IR-induced intestinal mucosal damage (injury score) (C57Bl/6 mice): attenuated mucosal damage
IR-induced intestinal injury (C57Bl/6 mice): effective for attenuating
intestinal injury (C57Bl/6 mice; [3]): attenuated
intestinal injury (C57Bl/6 mice; [4]): effective in preventing intestinal injury
intestinal injury (C57Bl/6 mice; [5]): significantly decreased
C3 Deposition (C3): −
C3 deposition / complement activation after IR (C3): not significantly different from either Sham or IR treatment; also recorded: attenuated complement activation
CD31 Deposition (CD31 (PECAM-1)): +
expression of adhesion molecule CD31 after IR (CD31 (PECAM-1)): inhibited
PGE2 Production (PGE2; [2]): optimally attenuated
PGE2 Production (PGE2; [1]): +/−
IR-induced intestinal PGE2 production (PGE2): did not attenuate; also recorded: but not eicosanoid production
PGE2 Production (PGE2; [6]): attenuated

H-KNISFACNPGFFLNG-NH2 [peptide 100, 16, reference compound]
Injury (C57Bl/6 mice; [1]): +
IR-induced intestinal mucosal damage (injury score) (C57Bl/6 mice): IR-induced intestinal damage similar to untreated mice
C3 Deposition (C3): +
C3 deposition / complement activation after IR (C3): did not significantly inhibit C3 deposition
CD31 Deposition (CD31 (PECAM-1)): +
expression of adhesion molecule CD31 after IR (CD31 (PECAM-1)): significantly different from both Sham and IR treated mice
PGE2 Production (PGE2; [1]): +
IR-induced intestinal PGE2 production (PGE2): sustained inflammation similar to untreated mice

Reference: patent publication US8895502B2, “β2-glycoprotein I peptide inhibitors” (Kansas State University Research Foundation, priority 2010, dated 2014)
